In patent US7189717B2, “Medicinal compositions promoting bowel movement” (Eisai Co., Ltd., priority 2000, dated 2007):
Where two headings read alike, the source gives them in different places.

Assays:
[1] = test system: guinea pig distal colon longitudinal muscles; details: cited from earlier work; for pA2 value of the antagonistic action on the relaxing action of NECA: electrical stimulation
[2] = test system: rat distal colon longitudinal muscles; details: cited from earlier work; for Relaxation of Carbachol-contracted muscles: agonist added at 0.1 to 30 μM
[3] = test system: guinea pig distal colon longitudinal muscles; details: KCl + tetrodotoxin, cited from earlier work
[4] = test system: guinea pig colon longitudinal muscles; details: 100 nM; cited from earlier work
[5] = Urine volume in rat (Test Example 2); type: in vivo; details: rats, oral, Table 4
Experimental: (§1) SD IGS rats (6-weeks-old, from Charles River) were placed in cages (3 animals/cage) and preliminarily allowed food and water ad libitum and raised for 1 week. On the day of the experiment, their weight was measured, a water-absorbing sheet was placed below each cage, and the animals were fasted but allowed water ad libitum throughout the experiment. Three hours after fasting was initiated, the fecal pellets were recovered from each cage and observed for abnormality before the experiment, and then the compound suspended or dissolved in 0.5% (W/V) methyl cellulose (MC) was orally administered into each rat in a dose of 5 ml/kg. On one hand, 0.5% (W/V) MC only was orally given to the control group. After administering the compound, the rats were returned to the cage provided with a new water-absorbing sheet of known weight, and 180 minutes after the administration, the fecal pellets on the water-absorbing sheet were recovered from each cage, and the external appearance was observed, and the number of fecal pellets was counted. […] After the fecal pellets were recovered, the water-absorbing sheet was weighed, and the weight determined by subtracting the initial weight of the water-adsorbing sheet from the weight after the experiment was regarded as the volume of urine and expressed as the volume of urine per 100 g of the body weight (Table 4).

[6] = test system: SD IGS rats; test: Defecation-promoting action in rat, number of fecal pellets (Test Example 2); type: in vivo; details: for The number of fecal pellets/3 rats: Test Example 2
Experimental: SD IGS rats (6-weeks-old, from Charles River) were placed in cages (3 animals/cage) and preliminarily allowed food and water ad libitum and raised for 1 week. On the day of the experiment, their weight was measured, a water-absorbing sheet was placed below each cage, and the animals were fasted but allowed water ad libitum throughout the experiment. Three hours after fasting was initiated, the fecal pellets were recovered from each cage and observed for abnormality before the experiment, and then the compound suspended or dissolved in 0.5% (W/V) methyl cellulose (MC) was orally administered into each rat in a dose of 5 ml/kg. On one hand, 0.5% (W/V) MC only was orally given to the control group. After administering the compound, the rats were returned to the cage provided with a new water-absorbing sheet of known weight, and 180 minutes after the administration, the fecal pellets on the water-absorbing sheet were recovered from each cage, and the external appearance was observed, and the number of fecal pellets was counted. The number of fecal pellets is expressed per each cage (Table 4). After the fecal pellets were recovered, the water-absorbing sheet was weighed, and the weight determined by subtracting the initial weight of the water-adsorbing sheet from the weight after the experiment was regarded as the volume of urine and expressed as the volume of urine per 100 g of the body weight (Table 4).

[7] = test system: SD IGS rats; test: Evaluation of defecation-promoting action (Table 10); type: in vivo, rat; details: 180 minutes, n = 6 cages/group
Experimental: That is, SD IGS rats (6-to 7-weeks-old, from Charles River) were placed in cages (3 animals/cage) and preliminarily allowed food and water ad libitum and raised for 1 week. On the day of the experiment, their weight was measured, a water-absorbing sheet was placed below each cage, and the animals were fasted but allowed water ad libitum throughout the experiment. Thee hours after fasting was initiated, the fecal pellets were recovered from each cage and observed for abnormality before the experiment, and then the compound suspended in 0.5% (w/v) methyl cellulose (MC) was orally administered in a dose of 5 ml/kg. On one hand, 0.5% (w/v) MC only was orally given to the control group. After administration of the compound, the rats were returned to the cage provided with a new water-absorbing sheet, and 180 minutes after the administration, the fecal pellets on the water-absorbing sheet were recovered from each cage, and the external appearance was observed, and the number of fecal pellets was counted. The number of fecal pellets is expressed per each cage.

[8] = test system: SD IGS rats; test: Contribution of inhibition of adenosine A2b receptor to defecation-promoting action (Test Example 3); type: in vivo, rat
Experimental: as §1, with “4). […]” for “4).”

For CCNC(=O)[C@H]1O[C@@H](n2cnc3c(N)nc(NCCc4ccc(CCC(=O)O)cc4)nc32)[C@H](O)[C@@H]1O [CGS21680, 2-p-[2-carboxyethyl]phenetylamino-5′-N-ethylarboxyamide adenosine], which “Relaxation of muscles contracted by electrical stimulation” value [1] is on record?
Its value is “very weak”.

What about the “Antagonism of the relaxing action of NECA and CPA” value ([2]; 10 μM) of the same molecule?
Its value is “not antagonized”.

And the Relaxing action ([3]; 1 μM)?
The Relaxing action was “did not act”.

For OC[C@H]1O[C@@H](n2cnc3c(NC4CCCC4)ncnc32)[C@H](O)[C@@H]1O [CPA], which “Relaxation of muscles contracted by electrical stimulation” value [1] is on record?
Its value is “relaxation was observed”.

What about the “Relaxing action on contraction stimulated by acetylcholine” value [4] of the same molecule?
The value was “did not exhibit a relaxing action”.

What about the “Relaxation of Carbachol-contracted muscles” value [2] of the same molecule?
The value was “relaxation was observed”.

Which results are given for Nc1ncc(-c2ccncc2)c(-c2ccco2)n1 [Compound I, 2-Amino-4-(2-furyl)-5-(4-pyridyl)pyrimidine]?
Diuretic action (in words) [5]: weaker diuretic action than the A1-selective antagonist KW3902; Defecation-promoting action (in words) ([6]; rats, oral, Table 4): evidently higher defecation-promoting action

What does the source list for CCCn1c(=O)c2[nH]c(C3CCCC3)nc2n(CCC)c1=O [DPCPX]?
pA2 value of the antagonistic action on the relaxing action of NECA [1]: 8.8; Antagonism of the relaxing action of NECA and CPA ([2]; 1 μM): antagonized; Antagonistic action on the relaxing action ([3]; 1 nM): did not show an antagonistic action; Antagonistic action on the relaxing action of NECA and CPA ([3]; 10 nM): inhibited the relaxing action of NECA and CPA; pA2 value against CPA [3]: 7.0; pA2 value against NECA [3]: 6.6

Which results are given for Nc1nc(N)c(-c2ccncc2)c(-c2cccc(F)c2)n1 [Example 1, 6-(3-Flurophenyl)-5-(4-pyridyl)-2,4-pyrimidine diamine]?
The number of fecal pellets/3 rats ([7]; 3 mg/kg oral): 14.83 ± 1.82 fecal pellets/3 rats; The number of fecal pellets/3 rats ([7]; 10 mg/kg oral): 23.17 ± 2.94 fecal pellets/3 rats

Which “pA2 value of the antagonistic action on the relaxing action of NECA” value [1] does the source give for Cn1c(=O)c2[nH]c(-c3ccccc3)nc2n(C)c1=O [Example 8-PT, 8-phenyltheophylline] here?
The value was 6.5.

What about the “pA2 value upon inhibition of the action of NECA” value ([3]; 10 μM) of the same molecule?
Its value is 5.7.

Which “Diuretic action (in words)” value [5] does the source give for CCCn1c(=O)c2[nH]c(C34CC5CC(CC3C5)C4)nc2n(CCC)c1=O [KW3902] here?
The value was “stronger diuretic action than Compound I”.

What about the “The number of fecal pellets/3 rats” value ([8]; KW3902 1 mg/kg together with KW6002 1 mg/kg, 180 minutes) of the same molecule?
The value was 18.25 ± 1.49 fecal pellets/3 rats.

And the “The number of fecal pellets/3 rats” value ([8]; KW3902 1 mg/kg without KW6002, 180 minutes)?
The value was 9.00 ± 1.08 fecal pellets/3 rats.

What about the “The number of fecal pellets/3 rats” value ([6]; 0.3 mg/kg oral, 180 minutes after administration) of the same molecule?
Its value is 10.67 ± 2.08 fecal pellets/3 rats.

What about the “The number of fecal pellets/3 rats” value ([6]; 1 mg/kg oral, 180 minutes) of the same molecule?
The value was 14.50 ± 1.18 fecal pellets/3 rats.

What about the “The number of fecal pellets/3 rats” value ([6]; 3 mg/kg oral, 180 minutes) of the same molecule?
Its value is 12.83 ± 1.66 fecal pellets/3 rats.

Which results are given for CCNC(=O)[C@H]1O[C@@H](n2cnc3c(N)ncnc32)[C@H](O)[C@@H]1O [NECA, 5′-N-ethylcarboxyamide adenosine]?
Relaxation of muscles contracted by electrical stimulation [1]: relaxation was observed; Relaxing action on contraction stimulated by acetylcholine [4]: did not exhibit a relaxing action; Relaxation of Carbachol-contracted muscles [2]: relaxation was observed
